Patent publication US9499612B2, “Antigen binding constructs” (Glaxo Group Limited, priority 2011, dated 2016)

Key:
[1] = tested on: human VEGF165 induced blood-retinal breakdown; experiment: VEGF induced blood-retinal breakdown: rabbit retinal leakage model; format: in vivo; conditions: for % reduction vs vehicle: Table 4B
Description: The high (H) and low (L) doses were based upon a molar equivalent dosing to Ranibizumab ([…] ™). The low dose, (L), was one third of the high dose.
In brief, all molecules were buffer exchanged using PD-10 Desalting Columns (GE Healthcare) into 10 mM Histidine HCl, 10% α-αtrehalose dehydrate, 0.01% PolySorbate 80, pH 5.5, and concentrated to the desired concentration using VIVASPIN™ 20, molecular weight cut off 5000 Da, spin concentrations (Sartorius Stedim Biotech), both were used according to manufacturer's instructions.
Ninety-eight (98) GD79B pigmented rabbits were randomly divided into nine (9) groups of ten (10) animals and one (1) group of eight (8) animals (used for KENACORT™ control). Each group was subdivided into 2 groups corresponding to 2 experimental sets. Test items, reference or control items were administered by intravitreal injection (IVT, 50 μL) into the right eyes on Day-7. Left eyes remained untreated and served as a negative control. On Day 0, right eyes were induced for blood retinal barrier (BRB) breakdown with a single intravitreal injection of 500 ng rhVEGF165 (vascular permeability inducer). Sodium fluorescein was intravenously injected to all groups 47 h after the VEGF challenge (Day 2). Within 10 min after the injection of the tracer a retinal angiography was performed on right eye and pictures were taken. Ocular fluorescein contents in the vitreoretinal compartment were measured 1 h later using non-invasive scanning ocular fluorophotometry. A right eye/left eye fluorescein content (AUC) Rt ratio was determined for retinal permeability evaluation. At the end of the evaluation period (Day 2), animals were euthanized and right eyes of all animals were enucleated. […] Fluorescein angiograms were collected for qualitative assessment.
One hundred and forty (140) HY79B pigmented rabbits were randomly divided into eleven (11) groups of twelve (12) animals and one (1) group of eight animals, each group was sub-divided into 4 experimental sets of 3 animals, bar the KENACORT™ treated group, (4 sets of 2 animals), (see Table 15A).

[2] = tested on: VEGF165 induced proliferation of human umbilical vein endothelial cells; experiment: Human Umbilical Cord Endothelial Cell (HUVEC) proliferation assay; format: cell-based
Description: The assay measures the extent of endothelial cell proliferation induced by a defined concentration of VEGF165 and the ability of VEGF antagonists to block this effect. HUVECs were seeded at 5000 cells per well in 96-well gelatine-coated plates, leaving outer wells free of cells, and incubated for several hours to permit adherence. Test molecules were assayed at equimolar concentrations (max 3.33×10^−08 M) with a 2-fold serial dilution, each in triplicate. The VEGF165 was prepared in basal medium to achieve 75 ng/ml final concentration. Medium was removed manually from the cell monolayers and 50 μl basal media was added to prevent the cells from drying out. […] Cells were incubated for 72 hrs, after which time the total number of cells was determined using Cell Titre Glo. […]
(§1) PRISM™ using a Sigmodial curve fit, variable slope cf a non-linear regression (variable slope). […] Estimates of the curve maxima and the standard error were analysed using a weighted mixed model analysis of variance, using 1/(standard error)^2, [SE]^2, as a weighting. […]
as §1

[3] = dose H, VEGF induced retinal leakage

Molecule	% reduction vs vehicle [1, 3] [%]	% reduction vs vehicle ([1]; low dose (L)) [%]	% reduction vs vehicle ([1]; 2 000 μg/eye) [%]	% reduction ([1]; Table 15B (ii), 2 000 ug/eye) [%]	inhibition of HUVEC proliferation ([2]; Example 8, 75 ng/ml VEGF165, 72 hrs) [%]	inhibition of VEGF driven HUVEC proliferation ([2]; Example 18) [%]
Ranibizumab [LUCENTIS ™, reference compound]	82	78	–	–	–	–
C[C@]12C=CC(=O)C=C1CC[C@H]1[C@@H]3C[C@@H](O)[C@](O)(C(=O)CO)[C@@]3(C)C[C@H](O)[C@@]12F [KENACORT ™, Triamcinalone, reference compound]	–	–	85	80	–	–
Bevacizumab [AVASTIN ™, reference compound]	75	–	–	–	~100	~100
